Test results reported in US20140228407A1, “TETRA-PYRIDINE COMPOUNDS AND COMPOSITION FOR PROTECTING CELLS, TISSUES AND ORGANS AGAINST ISCHEMIA-REPERFUSION INJURY” (YISSUM RESEARCH DEVELOPMENT COMPANY OF THE HEBREW …, priority 2011, published 2014).
Marks after values point to notes of the source that are not given here.

What was measured:
[1] = test system: neonate rat cardiomyocyte cells; assay: Hypoxia/ischemia in neonatal rat cardiomyocyte cultures, LDH release; assay type: cell-based; settings: 30, 100 and 300 nm compound vs 1 μM TPEN; 150 min ischemia then reoxygenation
Method: Rat hearts (1-2 days old) were sterilely removed and bathed three times in Ca^2+- and Mg^2+-free PBS to remove excess blood cells. The hearts were minced to small fragments and then agitated in a proteolytic enzyme-RDB solution prepared from a fig tree extract as described previously (Brik et al., 1990; Shneyvays et al., 2001). The RDB was diluted 1:200 in PBS at 25° C. for a few cycles of 10 min each. The supernatant suspension containing dissociated cells, to which medium containing 10% horse serum was added, was centrifuged at 500 g for 5 min. After centrifugation, the supernatant phase was discarded, and cells were resuspended in Dulbecco's modified Eagle medium supplemented with 10% heat-inactivated horse serum and 0.5% chick embryo extract. Cell suspensions were diluted to 1×10^6 cells/ml, and 300 μl was placed in 24 well plates (4 plates) collagen/gelatin-coated plastic culture dishes. Cultures were incubated in a humidified atmosphere of 5% CO2 and 95% air at 37° C. […] The growth medium was replaced every 3 days. The experiments were performed in vitro on these cardiomyocyte cultures after 3 to 5 days. […]
LDH activity was determined using LDH-L kit (Thermo Trace, Melbourne, Australia) within the cardiac cell medium (PBS). […] LDH enzymatic activity was measured in a spectrophotometer at a wavelength of 340 nm at 30° C. […]

PC12 cells = assay: PC12 ischemic model (oxygen and glucose deprivation), cell death by LDH measurement; assay type: cell-based; settings: for protection percentile: protection from cell death, FIG. 6B: identical for both compounds
Method: PC12 cells were grown in 25 cm^2 flasks in Dulbecco's modified Eagles Medium (DMEM), supplemented with 7% fetal bovine serum (FBS), 7% horse serum, […] penicillin and 100 μg/ml streptomycin. Cells were grown in humidified incubator 5% CO2, 95% air at 37° C. The medium was replaced every 2 days, and upon 70% confluence, the cells were counted and seeded for the ischemia experiments.
Approximately 1×10^6 PC12 cells/well were cultured and exposed to ischemia (oxygen and glucose deprivation=OGD) for 4.5 hr. Prior to the exposure, the growth medium was replaced with glucose-free DMEM (1 ml/well). Ischemia was performed in a closed chamber by replacement of air with 95% nitrogen/5% CO2.
Ischemic stress injury was characterized by lactate dehydrogenase (LDH) released from cells. After 4.5 hr of ischemia, a 50 μl sample of supernatant was taken from each well for LDH measurement. At the end of the ischemic insult (after 4.5 hr), glucose (at final concentration of 4.5 g/L by adding 10 μl from stock solution of 450 mg/ml per well (1 ml)) was added to the plates which underwent ischemia. The plates were then transferred to a humidified incubator and exposed to 95% air/5% CO2 at 37° C. for additional 18 hr of reoxygenation. DMEM supernatant samples (25 μl/well) were collected from each well for LDH measurements. The samples were centrifuged at 3500 rpm for 5 min, and 5 μl aliquots of supernatant was taken for LDH measurement.
For every experiment, a duplicate plate was prepared as a control study under normoxia. Cells were kept in a humidified incubator (5% CO2 and 95% air at 37° C.) in cell culture complete medium at a volume of 1 ml for 18 hr, and the same compounds were added with the same concentrations. Supernatant was collected for LDH measurement as indicated in the LDH activity measurement section below. Afterwards (at the end of the reoxygenation phase), the plates were frozen (at −70° C. for 30 min) and thawed once. 25 μl/well sample was collected and the samples were centrifuged at 3500 rpm for 5 min and then taken for LDH measurement (total).
LDH activity was determined using LDH-L kit (Pointe Scientific Inc., Michigan, USA) in the PC12 cell medium. Medium samples (5 μl) were collected at the end of the ischemic insult (after 4.5 hr) and after the reoxygenation period. In parallel, samples from the plates exposed to normoxia were collected. LDH enzymatic activity was measured in a spectrophotometer at a wavelength of 340 nm at 37° C. Data analysis was performed as follows: [OD (cycle 3)−OD (cycle 1)experiment]−[OD(3)−OD(1) control])/[OD(3)−OD(1) total]×100, and presented as percentage of total cell death.
One day before the experiment, 12-well plates were coated with 200 μg/ml type I rat tail collagen (BD Biosciences, Bedford, Mass.) and were further sterilized under UV. 1×10^6 PC12 undifferentiated cells/well were seeded on the plates and allowed to adhere overnight under regular conditions (DMEM medium high glucose 4.5 mg/ml, 5% CO2 and 95% air at 37° C.). Each experiment included 4 plates, two for normoxia and two for ischemia which underwent the same following treatment for all 4 plates.
A half hour before the onset of the ischemic insult, the antioxidant Tempol (4-hydroxy-2,2,6,6-tetramethylpiperidine-1-oxyl) (Sigma, St. Louis, Mo.) at a concentration of 0.5 mM (10 μl/well taken from a 8.6 mg/ml stock solution) or TPEN at a concentration of 3 μM and 10 μM were added to the plates. Before the experiments, the medium was replaced with DMEM glucose free medium at 1 ml volume/well. TPEN or 10 μl Tempol were again added to the appropriate wells and was maintained throughout all experiments.
Thereafter, the plates were introduced into a device inducing ischemia atmosphere with 95% nitrogen and 5% CO2 for 4.5 hr. Oxygen level was monitored online by a digital oxygen monitor showing up to 1%. At the end of OGD, 25 μl from each well was collected into 0.5 ml tubes for the LDH assay. […]

[2] = test system: model of ischemia/reperfusion in the CD rat; assay: Rat model of ischemia/reperfusion, infarct analysis (Phase B); assay type: in vivo; settings: positive control 5000 IU/kg bolus intravenous injection
Method: This study was conducted to evaluate the effects of the Compound #6 on cardiac function, infarct size, and Troponin I levels in a model of ischemia/reperfusion in the CD® (CR1CD® (SD)) rat. Phase A was conducted for toxicity evaluation purposes. In Phase B (the efficacy phase), two treatment groups of eight male rats were administered Compound #6 at dose levels of 0.2 and 2 mg/kg via intravenous infusion following myocardial infarction. The 2 mg/kg dose of Compound #6 was administered intravenously via a slow infusion starting 3 to 14 minutes prior to reperfusion and continuing for 20 minutes to 20 minutes and 32 seconds, which was approximately 6 to 17 minutes after reperfusion (depending on the infusion start time). The 0.2 mg/kg dose of Compound #6 was administered intravenously via a slow infusion starting 10 minutes prior to reperfusion and continuing for 30 minutes to 30 minutes and 30 seconds, which was approximately 20 minutes after reperfusion.
The animals were placed on mechanical ventilation and […]. Once anesthetized, the animal was placed in a right lateral recumbency, an arterial catheter or polyethylene tube was placed in the carotid artery for monitoring blood pressure and a thoracotomy was performed. The left coronary artery (LCA) was identified. A ligature was placed around the LCA and the vessel was ligated. The LCA was maintained occluded for 29 to 43 minutes. Occlusion of the vessel was verified via blanching of the heart and via ST interval changes. At the end of the occlusion period, the knot was loosened leaving the ligature in place, and the vessel was allowed to reperfuse for 3 hours 27 minutes to 4 hours 51 minutes. Following infarct, a chest tube was placed, the deep and superficial muscle layers were sutured at the surgical incision, and the skin was closed with staples. The chest tube was removed after spontaneous respiration was established. In Phase A, the animals were recovered from anesthesia and evaluated for 4 days. In Phase B, animals were maintained under anesthesia for 3 hours 27 minutes to 4 hours 51 minutes prior to being submitted to necropsy.
(§1) In Phase B, Compound #6 was administered once on Day 0 via intravenous infusion at dose levels of 0.2 and 2 mg/kg. The doses were administered at a dose volume of 1 mL/kg (0.05 [2 mg/kg] or 0.033 [0.2 mg/kg] mL/kg/minute). Two control groups received the vehicle (saline) or the vehicle for Compound #6 (10% (w/v) 2-hydroxypropyl-beta-cyclodextrin and 100 mM sodium chloride in deionized water) in the same manner as the 2 mg/kg treated group. The vehicles and 2 mg/kg Compound #6 were administered intravenously via a slow infusion starting 3 to 14 minutes prior to reperfusion and continuing for 20 minutes to 20 minutes and 32 seconds, which was approximately 6 to 17 minutes after reperfusion (depending on the infusion start time). The 0.2 mg/kg Compound #6 was administered intravenously via a slow infusion starting 10 minutes prior to reperfusion and continuing for 30 minutes to 30 minutes and 30 seconds, which was approximately 20 minutes after reperfusion. The positive control article, Erythropoietin, was administered at 5000 IU/kg via a bolus intravenous injection. The positive control article dose was administered at a dose volume of 2.5 mL/kg. The positive control was administered via a 3 to 60 second injection at 5 minutes prior to reperfusion.
After LAD reperfusion (4 hours), the animals were euthanized by an intraperitoneal injection of sodium pentobarbital followed by exsanguination via severing the abdominal vena cava. The heart was flushed with heparinized Lactated Ringers Solution (LRS) until clear of blood and the LAD was tied off using the same ligature used to occlude the vessel and Evan Blue dye was injected. The heart was weighed and breadloafed (4-5 sections per animal). […]

[3] = test system: model of ischemia/reperfusion in the CD rat; assay: Rat model of ischemia/reperfusion, cardiovascular monitoring (blood pressure, heart rate; Phase B); assay type: in vivo; settings: positive control 5000 IU/kg bolus; within 5-10 minutes of reperfusion
Method: The animals in Phase B were monitored for selected cardiovascular endpoints from at least 15 minutes prior to acute myocardial infarction until at approximately 1 hour post reperfusion. Blood samples for the evaluation of Troponin I were collected from all surviving Phase B animals prior to coronary artery occlusion and at termination. At study termination, the Phase B animals were submitted to necropsy for limited necropsy examinations and infarct analysis.
as §1
In Phase B, animals were anesthetized for monitoring of selected cardiovascular parameters. For experimentation, the blood pressure catheter implanted in the carotid artery was attached to an external transducer and data acquisition was started. Blood pressure (systolic, diastolic, and mean arterial) and heart rate (derived from blood pressure) were monitored from at least 15 minutes prior to acute myocardial infarction (AMI) until at least 1 hour after reperfusion. Individual animal cardiovascular data tables are not reported but are maintained in the study file.

## c1c[nH]c(CN(CCN(Cc2ncc[nH]2)Cc2ncc[nH]2)Cc2ncc[nH]2)n1 [Compound #4]
[1]
  protective effect against hypoxic insult (LDH release) compared with TPEN, FIG. 1A: only slightly more effective than TPEN

## c1ccc(CN(CCN(Cc2ccccn2)Cc2ccccn2)Cc2ccccn2)nc1 [TPEN, N,N,N′,N′-tetrakis-(2-pyridylmethyl)-ethylenediamine, reference compound]
PC12 cells; 10 μM, 4.5 hours ischemia
  reducing death of PC12 cells subjected to ischemia (LDH), FIG. 2: effective
PC12 cells; TPEN 10 μM vs Tempol 0.5 mM, 4.5 hours ischemia
  reducing death of PC12 cells, comparison vs. Tempol, FIG. 2: significantly effective vs. Tempol
PC12 cells; first of two selected concentrations (not given)
  protection percentile: protection from cell death, FIG. 6B: 7%
PC12 cells; second of two selected concentrations (not given)
  protection percentile: protection from cell death, FIG. 6B: 19%

## EPO: positive control article, erythropoietin [reference compound]
[2]
  cardiac damage compared to saline control animals, in words: significantly less cardiac damage
[2]; 4 hour reperfusion, rat
  Infarct/AAR (%) Mean: 22^b %
[2]; rat
  Infarct/LV (%) Mean: 8%
[3]
  mean arterial pressures after reperfusion: increased
